According to patent US7410975B2, “Small molecule toll-like receptor (TLR) antagonists” (Coley Pharmaceutical Group, Inc., priority 2003, dated 2008):
Structures can show the parent of a compound that is named as a salt.

Target: T1, human TLR8 (hTLR8) (Homo sapiens, UniProt Q9NR97)
T1 construct: expressed in transfected cells
T1 sequence (Q9NR97 27-1041): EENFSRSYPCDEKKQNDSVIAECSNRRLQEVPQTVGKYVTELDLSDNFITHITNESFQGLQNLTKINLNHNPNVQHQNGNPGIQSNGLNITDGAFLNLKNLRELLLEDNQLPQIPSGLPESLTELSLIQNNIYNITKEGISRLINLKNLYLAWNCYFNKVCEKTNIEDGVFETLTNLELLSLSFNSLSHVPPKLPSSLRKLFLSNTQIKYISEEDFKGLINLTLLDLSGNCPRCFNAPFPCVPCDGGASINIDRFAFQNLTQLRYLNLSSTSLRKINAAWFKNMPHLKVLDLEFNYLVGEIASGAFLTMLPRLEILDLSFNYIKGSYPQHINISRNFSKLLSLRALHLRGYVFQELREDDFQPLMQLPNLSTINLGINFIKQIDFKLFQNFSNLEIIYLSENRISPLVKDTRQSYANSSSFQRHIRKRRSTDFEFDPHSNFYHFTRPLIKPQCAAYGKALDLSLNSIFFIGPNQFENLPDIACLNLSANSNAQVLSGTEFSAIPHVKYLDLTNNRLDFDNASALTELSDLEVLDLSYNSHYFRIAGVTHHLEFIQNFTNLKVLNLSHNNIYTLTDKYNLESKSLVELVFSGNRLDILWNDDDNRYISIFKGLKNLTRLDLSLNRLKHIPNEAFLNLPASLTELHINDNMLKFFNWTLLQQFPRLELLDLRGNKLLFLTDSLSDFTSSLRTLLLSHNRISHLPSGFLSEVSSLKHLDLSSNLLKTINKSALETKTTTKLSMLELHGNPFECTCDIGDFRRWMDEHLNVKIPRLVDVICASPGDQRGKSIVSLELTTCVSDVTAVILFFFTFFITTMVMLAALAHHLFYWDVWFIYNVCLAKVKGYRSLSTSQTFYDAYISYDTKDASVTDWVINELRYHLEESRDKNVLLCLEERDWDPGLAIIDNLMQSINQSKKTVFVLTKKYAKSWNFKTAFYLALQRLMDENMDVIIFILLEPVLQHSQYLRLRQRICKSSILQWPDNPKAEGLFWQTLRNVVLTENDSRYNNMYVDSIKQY
Experiment: Antagonist screen, hTLR8-NFκB-293 cells, NF-κB-luciferase reporter, with EC50 of R848
Format: cell-based
Conditions: for hTLR8 (inhibitory effect, antagonist score): compound at 0.5, 5, 50 μg/ml, EC50 concentration of R848, 16 h, NF-κB-luciferase; for hTLR8 (inhibitory effect): hTLR8-NFκB-293 cells, with EC50 of R848, compound at 0.5, 5 and 50 μg/ml

CN1CCc2cccc3c2[C@H]1Cc1ccc(O)c(O)c1-3.Cl [compound 101, Apomorphinehydrochloride (R, —)]
hTLR8 (inhibitory effect, antagonist score): 11 (compounds for which there was clear down regulation only at 50 μg/ml)

CC(C)(C)c1ccc(C(O)CCCN2CCC(C(O)(c3ccccc3)c3ccccc3)CC2)cc1 (stereo not drawn) [compound 138, Terfenadine]
hTLR8 (inhibitory effect, antagonist score): 11 (compounds for which there was clear down regulation only at 50 μg/ml)

CN(C)C(=O)C(CCN1CCC(O)(c2ccc(Cl)cc2)CC1)(c1ccccc1)c1ccccc1 [compound 144, Loperamidehydrochloride]
hTLR8 (inhibitory effect, antagonist score): 11 (compounds for which there was clear down regulation only at 50 μg/ml)

COc1cc2cc3c4cc(OC)c(OC)cc4cc[n+]3c(C)c2cc1OC [compound 431, Coralyne chloridehydrate]
hTLR8 (inhibitory effect): — (compounds for which there was no clear down regulation even at 50 μg/ml)

COc1ccc(Cc2nccc3cc(OC)c(OC)cc23)cc1OC.Cl [compound 583, Papaverinehydrochloride]
hTLR8 (inhibitory effect): — (compounds for which there was no clear down regulation even at 50 μg/ml)

COc1ccc2cc3[n+](cc2c1OC)CCc1cc2c(cc1-3)OCO2.[Cl-] [compound 586, Berberine chloride]
hTLR8 (inhibitory effect): 12 (compounds for which there was clear down regulation at 5 μg/ml and 50 μg/ml)

COc1cc2c(cc1O)C[C@H]1c3c(cc(O)c(OC)c3-2)CCN1C [compound 600, Boldine]
hTLR8 (inhibitory effect, antagonist score): — (compounds for which there was no clear down regulation even at 50 μg/ml)

CN1CCc2cc3c(c4c2C1Cc1ccccc1-4)OCO3.Cl (stereo not drawn) [compound 669, Remerine hydrochloride]
hTLR8 (inhibitory effect, antagonist score): — (compounds for which there was no clear down regulation even at 50 μg/ml)

COc1cc2nc(N3CCN(C(=O)C4CCCO4)CC3)nc(N)c2cc1OC.Cl (stereo not drawn) [compound 751, Terazosin hydrochloride]
hTLR8 (inhibitory effect, antagonist score): — (compounds for which there was no clear down regulation even at 50 μg/ml)

CC[N+](C)(CC)CCC[n+]1c(-c2ccccc2)c2cc(N)ccc2c2ccc(N)cc21.[I-].[I-] [compound 792, Propidium iodide]
hTLR8 (inhibitory effect): — (compounds for which there was no clear down regulation even at 50 μg/ml)

CN(C)CCN(Cc1ccc(Cl)cc1)c1ccccn1.Cl [compound 807, Chloro-pyraminehydrochloride]
hTLR8 (inhibitory effect): — (compounds for which there was no clear down regulation even at 50 μg/ml)

CCOc1ccc(Cc2nccc3cc(OCC)c(OCC)cc23)cc1OCC.Cl [compound 830, Ethaverinehydrochloride]
hTLR8 (inhibitory effect): 11 (compounds for which there was clear down regulation only at 50 μg/ml)

COc1cc2nc(N3CCN(C(=O)C4COc5ccccc5O4)CC3)nc(N)c2cc1OC.CS(=O)(=O)O (stereo not drawn) [compound 858, Doxazosin mesylate]
hTLR8 (inhibitory effect, antagonist score): — (compounds for which there was no clear down regulation even at 50 μg/ml)

O=c1c2c(nc(NCCO)n1-c1ccccc1)-c1ccccc1CC21CCCC1 [compound 891]
hTLR8 (inhibitory effect): — (compounds for which there was no clear down regulation even at 50 μg/ml)

O=c1c2c(nc(NCCO)n1Cc1ccccc1)-c1ccccc1CC21CCCC1 [compound 926]
hTLR8 (inhibitory effect): 11 (compounds for which there was clear down regulation only at 50 μg/ml)

CN1CCc2c1nc1ccccc1c2N [compound 990, 1-Methyl-2,3-dihydro-1H-pyrrolo[2,3-b]quinolin-4-ylamine]
hTLR8 (inhibitory effect): — (compounds for which there was no clear down regulation even at 50 μg/ml)

CN1CCc2c1nc1ccccc1c2NC(=O)CN1CCCCCC1 [compound 1003]
hTLR8 (inhibitory effect): — (compounds for which there was no clear down regulation even at 50 μg/ml)

Cc1ccc2nc3c(c(N)c2c1)CCN3C [compound 1091, 1,6-Dimethyl-2,3-dihydro-1H-pyrrolo[2,3-b]quinolin-4-ylamine]
hTLR8 (inhibitory effect): 11 (compounds for which there was clear down regulation only at 50 μg/ml)

Cc1ccc(-n2c(NCCO)nc3c(c2=O)C2(CCCCC2)Cc2ccccc2-3)cc1 [compound 1137]
hTLR8 (inhibitory effect): 11 (compounds for which there was clear down regulation only at 50 μg/ml)

CN1CCc2c1nc1ccc(Br)cc1c2N [compound 1142, 6-Bromo-1-methyl-2,3-dihydro-1H-pyrrolo[2,3-b]quinolin-4-ylamine]
hTLR8 (inhibitory effect): 11 (compounds for which there was clear down regulation only at 50 μg/ml)

O=C1c2ccc(S(=O)(=O)c3ccc4c(c3)C(=O)N(c3ccccn3)C4=O)cc2C(=O)N1c1ccccn1 [compound 1163]
hTLR8 (inhibitory effect): 11 (compounds for which there was clear down regulation only at 50 μg/ml)

CN1CCCCc2c1nc1ccccc1c2N [compound 1185, 1-Methyl-2,3,4,5-tetrahydro-1H-azepino[2,3-b]quinolin-6-ylamine]
hTLR8 (inhibitory effect): — (compounds for which there was no clear down regulation even at 50 μg/ml)

CN1CCc2c1nc1ccccc1c2NC(=O)CN1CCN(c2ccccc2)CC1 [compound 1212]
hTLR8 (inhibitory effect): — (compounds for which there was no clear down regulation even at 50 μg/ml)

Cn1c(NN)nc2c(c1=O)C1(CCCC1)Cc1ccccc1-2 [compound 1213]
hTLR8 (inhibitory effect): — (compounds for which there was no clear down regulation even at 50 μg/ml)

Nc1c2c(nc3ccccc13)N(Cc1ccccc1)CC2 [compound 1217, 1-Benzyl-2,3-dihydro-1H-pyrrolo[2,3-b]quinolin-4-ylamine]
hTLR8 (inhibitory effect): 11 (compounds for which there was clear down regulation only at 50 μg/ml)

CCCCCCN(CCCCCC)CC(=O)Nc1c2c(nc3ccccc13)N(C)CC2 [compound 1224]
hTLR8 (inhibitory effect): 12 (compounds for which there was clear down regulation at 5 μg/ml and 50 μg/ml)

O=C(CN1CCCC1)Nc1c2c(nc3ccccc13)N(c1ccccc1)CC2 [compound 1244]
hTLR8 (inhibitory effect): 11 (compounds for which there was clear down regulation only at 50 μg/ml)

NNc1nc2c(c(=O)n1C1CCCC1)C1(CCCC1)Cc1ccccc1-2 [compound 1248]
hTLR8 (inhibitory effect): 11 (compounds for which there was clear down regulation only at 50 μg/ml)

NNc1nc2c(c(=O)n1-c1ccccc1)C1(CCCC1)Cc1ccccc1-2 [compound 1320]
hTLR8 (inhibitory effect): — (compounds for which there was no clear down regulation even at 50 μg/ml)

O=c1[nH]c(NCCO)nc2c1C1(CCCC1)Cc1ccccc1-2 [compound 1322]
hTLR8 (inhibitory effect): — (compounds for which there was no clear down regulation even at 50 μg/ml)

CCCCCCCCCCCC(=O)Nc1c2c(nc3ccccc13)N(C)CC2 [compound 1334]
hTLR8 (inhibitory effect): — (compounds for which there was no clear down regulation even at 50 μg/ml)

O=C1c2ccc(Oc3ccc(S(=O)(=O)c4ccc(Oc5ccc6c(c5)C(=O)N(c5ccccn5)C6=O)cc4)cc3)cc2C(=O)N1c1ccccn1 [compound 1367]
hTLR8 (inhibitory effect): 11 (compounds for which there was clear down regulation only at 50 μg/ml)

CCN(CC)CCCC(C)Nc1nc(/C=C/c2ccc(Cl)cc2)nc2cc3ccccc3cc12 (stereo not drawn) [compound 2000]
hTLR8 (inhibitory effect, antagonist score): 11 (compounds for which there was clear down regulation only at 50 μg/ml)
